Experimental data published in the supplement of paper PMC11551840.

Key:
Assay in all cases: IC50 (cell viability, 72 h) (ln(µM))
ORL-136 = tested on: ORL-136
Description: (§1)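 Discovery screen of OSCC cell lines in 1,536-well plates. Cells were treated 24 h after seeding with 7 concentrations spanning a 1,000-fold half-log range for 72 h, and viability was read by CellTiter-Glo 2.0 and normalised to DMSO (1) and medium-only (0) controls. IC50 comes from a two-parameter logistic nonlinear mixed-effects fit and is reported as natural log of IC50 in µM.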

HSC-4 = tested on: HSC-4
Description: as §1

ORL-207 = tested on: ORL-207
Description: as §1

ORL-115 = tested on: ORL-115
Description: as §1

ORL-156 = tested on: ORL-156
Description: as §1

BICR10 = tested on: BICR10
Description: as §1

ORL-153 = tested on: ORL-153
Description: as §1

SAS = tested on: SAS
Description: as §1

PE-CA-PJ15 = tested on: PE-CA-PJ15
Description: as §1

HSC-2 = tested on: HSC-2
Description: as §1

ORL-174 = tested on: ORL-174
Description: as §1

ORL-188 = tested on: ORL-188
Description: as §1

ORL-48 = tested on: ORL-48
Description: as §1

ORL-195 = tested on: ORL-195
Description: as §1

ORL-214 = tested on: ORL-214
Description: as §1

ORL-150 = tested on: ORL-150
Description: as §1

ORL-204 = tested on: ORL-204
Description: as §1

HO-1-u-1 = tested on: HO-1-u-1
Description: as §1

ORL-215 = tested on: ORL-215
Description: as §1

SCC-9 = tested on: SCC-9
Description: as §1

ORL-166 = tested on: ORL-166
Description: as §1

Compound	IC50 (ln) (ORL-136)	IC50 (ln) (HSC-4)	IC50 (ln) (ORL-207)	IC50 (ln) (ORL-115)	IC50 (ln) (ORL-156)	IC50 (ln) (BICR10)	IC50 (ln) (ORL-153)	IC50 (ln) (SAS)	IC50 (ln) (PE-CA-PJ15)	IC50 (ln) (HSC-2)	IC50 (ln) (ORL-174)	IC50 (ln) (ORL-188)	IC50 (ln) (ORL-48)	IC50 (ln) (ORL-195)	IC50 (ln) (ORL-214)	IC50 (ln) (ORL-150)	IC50 (ln) (ORL-204)	IC50 (ln) (HO-1-u-1)	IC50 (ln) (ORL-215)	IC50 (ln) (SCC-9)	IC50 (ln) (ORL-166)
Cc1cc(-c2nc(-c3ccc(OC(F)(F)F)cc3)no2)nn1Cc1ccnc(N2CCN(C3CC3)CC2)c1 [BAY-87-2243]	-0.901	-5.92	-2.38	-5.09	-0.734	-1.01	-0.683	-3.51	-1.76	-1.04	-0.785	-0.131	-1.95	-1.57	-0.338	-2.36	-2.77	-1.24	-2.31	-3.5	-2.29
CC[C@@H]1C(=O)N(C)c2cnc(Nc3ccc(C(=O)NC4CCN(C)CC4)cc3OC)nc2N1C1CCCC1 [BI-2536]	1.66	-1.33	-2.92	-2.1	-2.91	-2.78	-2.08	-1.93	-0.628	-2.87	-2.58	-2.94	-1.8	-2.26	-2.28	-3.5	-0.226	-2.33	-3.45	0.0591	-3.02
CC(C)C[C@H](NC(=O)[C@H](Cc1ccccc1)NC(=O)c1cnccn1)B(O)O [Bortezomib]	-4.79	-4.5	-5.3	-4.36	-4.46	-4.95	-4.84	-5.88	-4.28	-5.55	-5.44	-5.03	-4.47	-5.04	-5.37	-4.88	-4.52	-5.69	-5.32	-4.18	-5.43
COc1ncc(-c2ccc3nccc(-c4ccnnc4)c3c2)cc1NS(=O)(=O)c1ccc(F)cc1F [Omipalisib]	-2.66	-0.985	-3.51	-1.58	-3.31	-2.02		-1.24	-1.36	-4.69	-3.91	-3.88	-3.43	-3.16	-3.91	-4.18	-2.59	-3.13	-2.45	-1.11	-2.96
